Reference: patent US20230072860A1, “ISOXAZOLINE OXIME FORMATE COMPOUND, PREPARATION METHOD THEREFOR, HERBICIDAL COMPOSITION AND USE THEREOF” (QINGDAO KINGAGROOT CHEMICAL COMPOUND CO., LTD., priority 2020, published 2023)

Key:
Assay in all cases: Experiment on weeding effect in post-emergence stage
Type in all cases: in vivo
Conditions in all cases: dose 15 g a.i./ha, fresh weight control rate level
Digitaria sanguinalis = system: Digitaria sanguinalis
Excerpt: (§1) Experiment on weeding effect in post-emergence stage:
(§2) Monocotyledonous and dicotyledonous weed seeds (Descurainia sophia, Capsella bursa-pastoris, Abutilon theophrasti, Galium aparine, Stellaria media, Lithospermum arvense, Rorippa indica, Alopecurus aequalis, Alopecurus japonicus, Beckmannia syzigachne, Sclerochloa dura, Conyza Canadensis, Phleum paniculatum, Veronica didyma Tenore, Eleusine indica, Bromus japonicus, Aegilops tauschii, Phalaris arundinacea, Amaranthus retroflexus, Chenopodium album, Commelina communis, Sonchus arvensis, Convolvulus arvensis, Cirsium setosum, Solanum nigrum, Acalypha australis, Digitaria sanguinalis, Echinochloa crusgalli, Setaria viridis, Setaria glauca, Leptochloa chinensis, Monochoria vaginalis, Sagittaria trolia, Scirpus juncoides, Cyperus rotundus, Cyperus iria, Cyperus difformis, Elmbristylis, Portulaca oleracea, Xanthium sibiricum, Pharbitis nil) and major crop seeds (wheat, corn, rice, soybean, cotton, oilseed rape, millet, sorghum, potato, sesame, ricinus) were placed in plastic pots filled with soil, then covered with 0.5-2 cm of soil, allowed to grow in a good greenhouse environment. After 2 weeks of sowing, the test plants were treated in the 2-3 leaf stage. The tested compounds of the present invention were respectively dissolved in acetone, then added with Tween 80 and 1.5 liter/ha of emulsifiable concentrate of methyl oleate as synergist, diluted with a certain amount of water to obtain a solution with a certain concentration, and sprayed with a spray tower onto the plants. After the application, the plants were cultured for 3 weeks in the greenhouse, and then the experimental results of the weeding were counted. The doses of the used compounds were 500, 250, 125, 60, 15 g a.i./ha, and the averages were obtained by repeating for three times.

Eleusine indica = system: Eleusine indica
Excerpt: as §1, §2

Leptochloa chinensis = system: Leptochloa chinensis
Excerpt: as §1, §2

Setaria viridis = system: Setaria viridis
Excerpt: as §1, §2

Amaranthus retroflexus = system: Amaranthus retroflexus
Excerpt: as §1, §2

Echinochloa crusgalli = system: Echinochloa crusgalli
Excerpt: as §1, §2

Galium aparine = system: Galium aparine
Excerpt: as §1, §2

Abutilon theophrasti = system: Abutilon theophrasti
Excerpt: as §1, §2

Veronica didyma Tenore = system: Veronica didyma Tenore
Excerpt: as §1, §2

Row | Structure (SMILES) | weeding effect in post-emergence stage, Digitaria sanguinalis (level) (Digitaria sanguinalis) | weeding effect in post-emergence stage, Eleusine indica (level) (Eleusine indica) | weeding effect in post-emergence stage, Leptochloa chinensis (level) (Leptochloa chinensis) | weeding effect in post-emergence stage, Setaria viridis (level) (Setaria viridis) | weeding effect in post-emergence stage, Amaranthus retroflexus (level) (Amaranthus retroflexus) | weeding effect in post-emergence stage, Echinochloa crusgalli (level) (Echinochloa crusgalli) | weeding effect in post-emergence stage, Galium aparine (level) (Galium aparine) | weeding effect in post-emergence stage, Abutilon theophrasti (level) (Abutilon theophrasti) | weeding effect in post-emergence stage, Veronica didyma Tenore (level) (Veronica didyma Tenore)
1 | Cc1ccc(C=NOC(=O)C2(C)CC(c3cc(-n4c(=O)n(C)c(=S)n(C)c4=O)c(F)cc3Cl)=NO2)s1 (mixture of isomers) [Compound 118] | 5 (Level 5: growth control rate is above 85%) | 5 (Level 5: growth control rate is above 85%) | 5 (Level 5: growth control rate is above 85%) | 5 (Level 5: growth control rate is above 85%) | 5 (Level 5: growth control rate is above 85%) | 5 (Level 5: growth control rate is above 85%) | 5 (Level 5: growth control rate is above 85%) | 5 (Level 5: growth control rate is above 85%) | 5 (Level 5: growth control rate is above 85%)
2 | CCOC(C)=NOC(=O)C1(C)CC(c2cc(-n3c(=O)n(C)c(=S)n(C)c3=O)c(F)cc2Cl)=NO1 (mixture of isomers) [Compound 120] | 5 (Level 5: growth control rate is above 85%) | 5 (Level 5: growth control rate is above 85%) | 5 (Level 5: growth control rate is above 85%) | 5 (Level 5: growth control rate is above 85%) | 5 (Level 5: growth control rate is above 85%) | 5 (Level 5: growth control rate is above 85%) | 5 (Level 5: growth control rate is above 85%) | 5 (Level 5: growth control rate is above 85%) | 5 (Level 5: growth control rate is above 85%)
3 | COCC(C)=NOC(=O)C1(C)CC(c2cc(-n3c(=O)n(C)c(=S)n(C)c3=O)c(F)cc2Cl)=NO1 (mixture of isomers) [Compound 121] | 5 (Level 5: growth control rate is above 85%) | 5 (Level 5: growth control rate is above 85%) | 5 (Level 5: growth control rate is above 85%) | 5 (Level 5: growth control rate is above 85%) | 5 (Level 5: growth control rate is above 85%) | 5 (Level 5: growth control rate is above 85%) | 5 (Level 5: growth control rate is above 85%) | 5 (Level 5: growth control rate is above 85%) | 5 (Level 5: growth control rate is above 85%)
4 | CC(C)=NOC(=O)C1(C)CC(c2nc(-n3c(=O)n(C)c(=S)n(C)c3=O)c(F)cc2Cl)=NO1 (racemic) [Compound 16] | 5 (Level 5: growth control rate is above 85%) | 5 (Level 5: growth control rate is above 85%) | 5 (Level 5: growth control rate is above 85%) | 5 (Level 5: growth control rate is above 85%) | 5 (Level 5: growth control rate is above 85%) | 5 (Level 5: growth control rate is above 85%) | 5 (Level 5: growth control rate is above 85%) | 5 (Level 5: growth control rate is above 85%) | 5 (Level 5: growth control rate is above 85%)
5 | CCC(CC)=NOC(=O)C1(C)CC(c2cc(-n3c(=O)n(C)c(=S)n(C)c3=O)c(F)cc2Cl)=NO1 (racemic) [Compound 83] | 5 (Level 5: growth control rate is above 85%) | 5 (Level 5: growth control rate is above 85%) | 5 (Level 5: growth control rate is above 85%) | 5 (Level 5: growth control rate is above 85%) | 5 (Level 5: growth control rate is above 85%) | 5 (Level 5: growth control rate is above 85%) | 5 (Level 5: growth control rate is above 85%) | 5 (Level 5: growth control rate is above 85%) | 5 (Level 5: growth control rate is above 85%)
6 | CC(C)=NOC(=O)C1(C)CC(c2cc(-n3c(=O)n(C)c(=S)n(C)c3=O)c(F)cc2Cl)=NO1 (stereo not drawn) [Compound 10] | 5 (Level 5: growth control rate is above 85%) | 5 (Level 5: growth control rate is above 85%) | 5 (Level 5: growth control rate is above 85%) | 5 (Level 5: growth control rate is above 85%) | 5 (Level 5: growth control rate is above 85%) | 5 (Level 5: growth control rate is above 85%) | 5 (Level 5: growth control rate is above 85%) | 5 (Level 5: growth control rate is above 85%) | 5 (Level 5: growth control rate is above 85%)
7 | C/C=N/OC(=O)C1(C)CC(c2cc(-n3c(=O)n(C)c(=S)n(C)c3=S)c(F)cc2Cl)=NO1 (stereo not drawn) [Compound 54] | 5 (Level 5: growth control rate is above 85%) | 5 (Level 5: growth control rate is above 85%) | 5 (Level 5: growth control rate is above 85%) | 5 (Level 5: growth control rate is above 85%) | 5 (Level 5: growth control rate is above 85%) | 5 (Level 5: growth control rate is above 85%) | 5 (Level 5: growth control rate is above 85%) | 5 (Level 5: growth control rate is above 85%) | 5 (Level 5: growth control rate is above 85%)
8 | CC(C)=NOC(=O)C1(C)CC(c2cc(-n3c(=O)n(C)c(=S)n(C)c3=S)c(F)cc2Cl)=NO1 (stereo not drawn) [Compound 56] | 5 (Level 5: growth control rate is above 85%) | 5 (Level 5: growth control rate is above 85%) | 5 (Level 5: growth control rate is above 85%) | 5 (Level 5: growth control rate is above 85%) | 5 (Level 5: growth control rate is above 85%) | 5 (Level 5: growth control rate is above 85%) | 5 (Level 5: growth control rate is above 85%) | 5 (Level 5: growth control rate is above 85%) | 5 (Level 5: growth control rate is above 85%)
9 | CC/C(C)=N/OC(=O)C1(C)CC(c2cc(-n3c(=O)n(C)c(=S)n(C)c3=S)c(F)cc2Cl)=NO1 (stereo not drawn) [Compound 57] | 5 (Level 5: growth control rate is above 85%) | 5 (Level 5: growth control rate is above 85%) | 5 (Level 5: growth control rate is above 85%) | 5 (Level 5: growth control rate is above 85%) | 5 (Level 5: growth control rate is above 85%) | 5 (Level 5: growth control rate is above 85%) | 5 (Level 5: growth control rate is above 85%) | 5 (Level 5: growth control rate is above 85%) | 5 (Level 5: growth control rate is above 85%)
